According to patent publication US4401604A, “Process for preparing thiosulfenamide derivatives of N-phosphonomethylglycine triesters” (Monsanto Company, priority 1981, dated 1983):

Columns and labels:
Type in all cases: in vivo
Cocklebur [1] = test: Post-emergence herbicidal activity, greenhouse; settings: 4 WAT
Outline: (§1)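 Plants grown 2–3 weeks in greenhouse soil pans, then atomizer-sprayed with candidate in solvent/water spray containing ~0.4% emulsifier (butylamine dodecylbenzene sulfonate/tall oil ethoxylate) at stated application rates. Injury scored versus unsprayed controls at ~2 and 4 weeks after treatment, as an activity index.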

Rice = test: Post-emergence herbicidal activity, greenhouse; settings: Table II, 4 WAT
Outline: as §1

Panicum Spp = test: Post-emergence herbicidal activity, greenhouse; settings: Table II, 4 WAT
Outline: as §1

Barnyardgrass [2] = test: Post-emergence herbicidal activity, greenhouse; settings: 4 WAT
Outline: as §1

Crabgrass = test: Post-emergence herbicidal activity, greenhouse; settings: Table II, 4 WAT
Outline: as §1

Sorghum = test: Post-emergence herbicidal activity, greenhouse; settings: Table II, 4 WAT
Outline: as §1

Wheat = test: Post-emergence herbicidal activity, greenhouse; settings: Table II, 4 WAT
Outline: as §1

Lambsquarters [3] = test: Post-emergence herbicidal activity, greenhouse; settings: 4 WAT
Outline: as §1

Wild Buckwheat = test: Post-emergence herbicidal activity, greenhouse; settings: Table II, 4 WAT
Outline: as §1

Sugar Beet = test: Post-emergence herbicidal activity, greenhouse; settings: Table II, 4 WAT
Outline: as §1

Yellow Nutsedge [4] = test: Post-emergence herbicidal activity, greenhouse; settings: Table I, 4 WAT
Outline: as §1

Hemp Sesbania = test: Post-emergence herbicidal activity, greenhouse; settings: Table II, 4 WAT
Outline: as §1

Velvetleaf [5] = test: Post-emergence herbicidal activity, greenhouse; settings: 4 WAT
Outline: as §1

Soybean = test: Post-emergence herbicidal activity, greenhouse; settings: Table II, 4 WAT
Outline: as §1

Smartweed [6] = test: Post-emergence herbicidal activity, greenhouse; settings: 4 WAT
Outline: as §1

Johnsongrass [7] = test: Post-emergence herbicidal activity, greenhouse; settings: Table I, 4 WAT
Outline: as §1

Downy Brome [8] = test: Post-emergence herbicidal activity, greenhouse; settings: 4 WAT
Outline: as §1

Morningglory [9] = test: Post-emergence herbicidal activity, greenhouse; settings: 4 WAT
Outline: as §1

Canada Thistle [10] = test: Post-emergence herbicidal activity, greenhouse; settings: Table I, 4 WAT
Outline: as §1

Quackgrass [11] = test: Post-emergence herbicidal activity, greenhouse; settings: Table I, 4 WAT
Outline: as §1

Cocklebur [12] = test: Pre-emergent herbicidal activity; settings: Table III; 11.2 kg/h; 2 WAT
Outline: (§2)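 Seeds or vegetative propagules were pressed onto compacted top soil, then covered with soil premixed with a known amount of active ingredient. Pans were bottom-watered and kept on a wet sand bench in ordinary sunlight for about two weeks. Emerged plants were counted against untreated controls and scored as an index of average percent control.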

Barnyardgrass [13] = test: Pre-emergent herbicidal activity; settings: Table III; 11.2 kg/h; 2 WAT
Outline: as §2

Lambsquarters [14] = test: Pre-emergent herbicidal activity; settings: Table III; 11.2 kg/h; 2 WAT
Outline: as §2

Yellow Nutsedge [15] = test: Pre-emergent herbicidal activity; settings: Table III; 11.2 kg/h; 2 WAT
Outline: as §2

Velvetleaf [16] = test: Pre-emergent herbicidal activity; settings: Table III; 11.2 kg/h; 2 WAT
Outline: as §2

Smartweed [17] = test: Pre-emergent herbicidal activity; settings: Table III; 11.2 kg/h; 2 WAT
Outline: as §2

Johnsongrass [18] = test: Pre-emergent herbicidal activity; settings: Table III; 11.2 kg/h; 2 WAT
Outline: as §2

Downy Brome [19] = test: Pre-emergent herbicidal activity; settings: Table III; 11.2 kg/h; 2 WAT
Outline: as §2

Morningglory [20] = test: Pre-emergent herbicidal activity; settings: Table III; 11.2 kg/h; 2 WAT
Outline: as §2

Canada Thistle [21] = test: Pre-emergent herbicidal activity; settings: Table III; 11.2 kg/h; 2 WAT
Outline: as §2

Quackgrass [22] = test: Pre-emergent herbicidal activity; settings: Table III; 11.2 kg/h; 2 WAT
Outline: as §2

## CCCCCCCCSSN(CC(=O)OC)CP(=O)(Oc1ccccc1)Oc1ccccc1 [II, Glycine, N-[(diphenoxyphosphinyl)methyl]-N-(octyldithio)-, methyl ester]
Cocklebur [1]; Table I, 5.6 kg/h
  post-emergence herbicidal activity index: 4 (100% control)
Cocklebur [1]; Table I, 11.2 kg/h
  post-emergence herbicidal activity index: 3 (75-99% control)
Cocklebur [1]; Table II, 0.28 kg/h
  post-emergence herbicidal activity index: 0 (0- 24% control)
Cocklebur [1]; Table II, 1.12 kg/h
  post-emergence herbicidal activity index: 1 (25-49% control)
Cocklebur [1]; Table II, 5.6 kg/h
  post-emergence herbicidal activity index: 3 (75-99% control)
Rice; 0.28 kg/h
  post-emergence herbicidal activity index: 0 (0- 24% control)
Rice; 1.12 kg/h
  post-emergence herbicidal activity index: 1 (25-49% control)
Rice; 5.6 kg/h
  post-emergence herbicidal activity index: 3 (75-99% control)
Panicum Spp; 0.28 kg/h
  post-emergence herbicidal activity index: 0 (0- 24% control)
Panicum Spp; 1.12 kg/h
  post-emergence herbicidal activity index: 0 (0- 24% control)
Panicum Spp; 5.6 kg/h
  post-emergence herbicidal activity index: 3 (75-99% control)
Barnyardgrass [2]; Table I, 5.6 kg/h
  post-emergence herbicidal activity index: 2 (50-74% control)
Barnyardgrass [2]; Table I, 11.2 kg/h
  post-emergence herbicidal activity index: 2 (50-74% control)
Barnyardgrass [2]; Table II, 0.28 kg/h
  post-emergence herbicidal activity index: 0 (0- 24% control)
Barnyardgrass [2]; Table II, 1.12 kg/h
  post-emergence herbicidal activity index: 1 (25-49% control)
Barnyardgrass [2]; Table II, 5.6 kg/h
  post-emergence herbicidal activity index: 3 (75-99% control)
Crabgrass; 0.28 kg/h
  post-emergence herbicidal activity index: 0 (0- 24% control)
Crabgrass; 1.12 kg/h
  post-emergence herbicidal activity index: 2 (50-74% control)
Crabgrass; 5.6 kg/h
  post-emergence herbicidal activity index: 4 (100% control)
Sorghum; 0.28 kg/h
  post-emergence herbicidal activity index: 0 (0- 24% control)
Sorghum; 1.12 kg/h
  post-emergence herbicidal activity index: 1 (25-49% control)
Sorghum; 5.6 kg/h
  post-emergence herbicidal activity index: 3 (75-99% control)
Wheat; 0.28 kg/h
  post-emergence herbicidal activity index: 0 (0- 24% control)
Wheat; 1.12 kg/h
  post-emergence herbicidal activity index: 0 (0- 24% control)
Wheat; 5.6 kg/h
  post-emergence herbicidal activity index: 3 (75-99% control)
Lambsquarters [3]; Table I, 5.6 kg/h
  post-emergence herbicidal activity index: 3 (75-99% control)
Lambsquarters [3]; Table I, 11.2 kg/h
  post-emergence herbicidal activity index: 4 (100% control)
Lambsquarters [3]; Table II, 0.28 kg/h
  post-emergence herbicidal activity index: 0 (0- 24% control)
Lambsquarters [3]; Table II, 1.12 kg/h
  post-emergence herbicidal activity index: 2 (50-74% control)
Lambsquarters [3]; Table II, 5.6 kg/h
  post-emergence herbicidal activity index: 3 (75-99% control)
Wild Buckwheat; 0.28 kg/h
  post-emergence herbicidal activity index: 0 (0- 24% control)
Wild Buckwheat; 1.12 kg/h
  post-emergence herbicidal activity index: 0 (0- 24% control)
Wild Buckwheat; 5.6 kg/h
  post-emergence herbicidal activity index: 3 (75-99% control)
Sugar Beet; 0.28 kg/h
  post-emergence herbicidal activity index: 0 (0- 24% control)
Sugar Beet; 1.12 kg/h
  post-emergence herbicidal activity index: 0 (0- 24% control)
Sugar Beet; 5.6 kg/h
  post-emergence herbicidal activity index: 3 (75-99% control)
Yellow Nutsedge [4]; 5.6 kg/h
  post-emergence herbicidal activity index: 1 (25-49% control)
Yellow Nutsedge [4]; 11.2 kg/h
  post-emergence herbicidal activity index: 2 (50-74% control)
Hemp Sesbania; 0.28 kg/h
  post-emergence herbicidal activity index: 0 (0- 24% control)
Hemp Sesbania; 1.12 kg/h
  post-emergence herbicidal activity index: 0 (0- 24% control)
Hemp Sesbania; 5.6 kg/h
  post-emergence herbicidal activity index: 1 (25-49% control)
Velvetleaf [5]; Table I, 5.6 kg/h
  post-emergence herbicidal activity index: 1 (25-49% control)
Velvetleaf [5]; Table I, 11.2 kg/h
  post-emergence herbicidal activity index: 3 (75-99% control)
Velvetleaf [5]; Table II, 0.28 kg/h
  post-emergence herbicidal activity index: 0 (0- 24% control)
Velvetleaf [5]; Table II, 1.12 kg/h
  post-emergence herbicidal activity index: 0 (0- 24% control)
Velvetleaf [5]; Table II, 5.6 kg/h
  post-emergence herbicidal activity index: 2 (50-74% control)
Soybean; 0.28 kg/h
  post-emergence herbicidal activity index: 0 (0- 24% control)
Soybean; 1.12 kg/h
  post-emergence herbicidal activity index: 0 (0- 24% control)
Soybean; 5.6 kg/h
  post-emergence herbicidal activity index: 2 (50-74% control)
Smartweed [6]; Table I, 5.6 kg/h
  post-emergence herbicidal activity index: 2 (50-74% control)
Smartweed [6]; Table I, 11.2 kg/h
  post-emergence herbicidal activity index: 4 (100% control)
Smartweed [6]; Table II, 0.28 kg/h
  post-emergence herbicidal activity index: 0 (0- 24% control)
Smartweed [6]; Table II, 1.12 kg/h
  post-emergence herbicidal activity index: 1 (25-49% control)
Smartweed [6]; Table II, 5.6 kg/h
  post-emergence herbicidal activity index: 2 (50-74% control)
Johnsongrass [7]; 5.6 kg/h
  post-emergence herbicidal activity index: 3 (75-99% control)
Johnsongrass [7]; 11.2 kg/h
  post-emergence herbicidal activity index: 3 (75-99% control)
Downy Brome [8]; Table I, 5.6 kg/h
  post-emergence herbicidal activity index: 2 (50-74% control)
Downy Brome [8]; Table I, 11.2 kg/h
  post-emergence herbicidal activity index: 1 (25-49% control)
Downy Brome [8]; Table II, 0.28 kg/h
  post-emergence herbicidal activity index: 0 (0- 24% control)
Downy Brome [8]; Table II, 1.12 kg/h
  post-emergence herbicidal activity index: 0 (0- 24% control)
Downy Brome [8]; Table II, 5.6 kg/h
  post-emergence herbicidal activity index: 2 (50-74% control)
Morningglory [9]; Table I, 5.6 kg/h
  post-emergence herbicidal activity index: 2 (50-74% control)
Morningglory [9]; Table I, 11.2 kg/h
  post-emergence herbicidal activity index: 2 (50-74% control)
Morningglory [9]; Table II, 0.28 kg/h
  post-emergence herbicidal activity index: 1 (25-49% control)
Morningglory [9]; Table II, 1.12 kg/h
  post-emergence herbicidal activity index: 1 (25-49% control)
Morningglory [9]; Table II, 5.6 kg/h
  post-emergence herbicidal activity index: 3 (75-99% control)
Canada Thistle [10]; 5.6 kg/h
  post-emergence herbicidal activity index: 0 (0- 24% control)
Canada Thistle [10]; 11.2 kg/h
  post-emergence herbicidal activity index: 1 (25-49% control)
Quackgrass [11]; 5.6 kg/h
  post-emergence herbicidal activity index: 3 (75-99% control)
Quackgrass [11]; 11.2 kg/h
  post-emergence herbicidal activity index: 1 (25-49% control)
Cocklebur [12]
  pre-emergent herbicidal activity index: 0 (0-24% control)
Barnyardgrass [13]
  pre-emergent herbicidal activity index: 0 (0-24% control)
Lambsquarters [14]
  pre-emergent herbicidal activity index: 0 (0-24% control)
Yellow Nutsedge [15]
  pre-emergent herbicidal activity index: 0 (0-24% control)
Velvetleaf [16]
  pre-emergent herbicidal activity index: 0 (0-24% control)
Smartweed [17]
  pre-emergent herbicidal activity index: 0 (0-24% control)
Johnsongrass [18]
  pre-emergent herbicidal activity index: 2 (50-74% control)
Downy Brome [19]
  pre-emergent herbicidal activity index: 0 (0-24% control)
Morningglory [20]
  pre-emergent herbicidal activity index: 0 (0-24% control)
Canada Thistle [21]
  pre-emergent herbicidal activity index: 1 (25-49% control)
Quackgrass [22]
  pre-emergent herbicidal activity index: 0 (0-24% control)
